Experimental data taken from ChEMBL document CHEMBL5365400, “Design and synthesis of aminopyridine containing biaryls reducing c-MYC protein levels in cells” (Bioorg Med Chem Lett, 2023).
≈ marks a conversion by molar mass, not a printed value.

Experiments:
[1] = Half life in po dosed rat; format: ADME, organism-based; conditions: in vivo
[2] = Cmax in po dosed rat; format: ADME, organism-based; set-up: route po; conditions: in vivo
[3] = Aqueous solubility of compound; format: physicochemical; conditions: buffer
[4] = Clearance in po dosed rat; format: ADME, organism-based; conditions: in vivo
[5] = AUC (0 to infinity) in po dosed rat; format: ADME, organism-based; set-up: route po; conditions: in vivo
[6] = Oral bioavailability in rat; format: ADME, organism-based; conditions: in vivo
[7] = Lipophilicity, log D of the compound at pH 7.4 by chromatographic method; format: physicochemical; conditions: buffer
[8] = Volume of distribution at steady state in po dosed rat; format: ADME, organism-based; conditions: in vivo
[9] = Artificial membrane permeability of compound; format: physicochemical; conditions: PAMPA; read-out: permeability

Structure (SMILES)	solubility [3]	chromatographic logD [7]	further results
CCN(CC)c1ccc(-c2nc3ccccc3n2Cc2coc(C)n2)cn1	65 µg/mL (≈ 180 µM)	5.1	half-life [1]: 13.2 min; Cmax [2]: 180 ng/mL; clearance [4]: 160 mL/min/kg; AUC(0-inf) [5]: 126 ng·h/mL; bioavailability [6]: < 5%; Vdss [8]: 2.1 L/kg; Papp [9]: 68 ×10⁻⁶ cm/s
CCOCCn1c(-c2ccc(N(CC)CC)nc2)nc2ccccc21	67 µg/mL (≈ 198 µM)	6	–
CCOCCc1cc(Cl)cnc1-c1ccc(N(CC)CC)nc1	–	7.4	–
CCN(CC)c1ccc(-c2nn3cccnc3c2Cc2coc(C)n2)cn1	≥ 142 µg/mL	4.9	–
CCN(CC)c1ccc(-c2nc3ncccn3c2Cc2coc(C)n2)cn1	≥ 112 µg/mL	1.5	–
Cc1nc(Cc2c(-c3ccc(N4[C@@H](C)CC[C@@H]4C)nc3)nc3cccnn23)co1	80 µg/mL (≈ 206 µM)	4.7	half-life [1]: 14.4 min; Cmax [2]: 220 ng/mL; clearance [4]: 180 mL/min/kg; AUC(0-inf) [5]: 108 ng·h/mL; Vdss [8]: 3.1 L/kg; Papp [9]: 57 ×10⁻⁶ cm/s
CCOCCn1c(-c2ccc(N(CC)CC)nc2)nc(Br)c1Br	–	6.9	–
CCOCCc1nc2ccccc2nc1-c1ccc(N(CC)CC)nc1	–	7.4	–
CCN(CC)c1ccc(-c2nn3ccncc3c2Cc2coc(C)n2)cn1	> 65 µg/mL	4.9	–
CCN(CC)c1ccc(-c2nc3nccnc3n2Cc2coc(C)n2)cn1	–	3.7	–
CCOCCc1cc2ccccc2nc1-c1ccc(N(CC)CC)nc1	38 µg/mL (≈ 109 µM)	7.2	–
CCOCCn1ccnc1-c1ccc(N(CC)CC)nc1	–	4.2	–
CCN(CC)c1ccc(-c2nc3cccnn3c2Cc2coc(C)n2)cn1	≥ 187 µg/mL	5	half-life [1]: 13.2 min; Cmax [2]: 110 ng/mL; clearance [4]: 190 mL/min/kg; AUC(0-inf) [5]: 94 ng·h/mL; Vdss [8]: 2.4 L/kg; Papp [9]: 68.5 ×10⁻⁶ cm/s
CCOCCc1c(-c2ccc(N(CC)CC)nc2)c(=O)n(C)c2ccccc12	90 µg/mL (≈ 237 µM)	6.2	–
CCN(CC)c1ccc(-c2nc3ncncc3n2Cc2coc(C)n2)cn1	≥ 119 µg/mL	3	–
CCN(CC)c1ccc(-n2nc3ccccc3c2Cc2coc(C)n2)cn1	92 µg/mL (≈ 255 µM)	5.4	–
CCOCCc1cccnc1-c1ccc(N(CC)CC)nc1	–	5.4	–
CCOCCc1c(-c2ccc(N(CC)CC)nc2)ncc2ccccc12	33 µg/mL (≈ 94.4 µM)	7	–
CCOCCc1c(-c2ccc(N(CC)CC)nc2)c(=O)[nH]c2ccccc12	19 µg/mL (≈ 52 µM)	5	–
CCOCCc1c(-c2ccc(N(CC)CC)nc2)cnc2ccccc12	–	6.9	–
CCOCCc1cc(-c2ccc(N(CC)CC)nc2)nc2ccccc12	–	8	–
CCN(CC)c1ccc(-c2nc3cnccn3c2Cc2coc(C)n2)cn1	169 µg/mL (≈ 466 µM)	4.2	–
CCN(CC)c1ccc(-c2nn3ccccc3c2Cc2coc(C)n2)cn1	46 µg/mL (≈ 127 µM)	5.4	–
